Patent US20230035403A1, “Method For Determining Responsiveness To Prostate Cancer Treatment” (Janssen Biotech, Inc., priority 2020, published 2023)

Columns and labels:
[1] = tested on: autologous CD3+ Pan-T cells (CD8+ and CD4+ T cells) with peptide-pulsed CD1c+ Dendritic Cells; assay: Exogenous autologous normal donor restimulation assay (in vitro immunogenicity); assay type: cell-based, human; parameters: key to Max. Frequency of CD8+ TNFαINFγ DP / Max. Frequency of CD4+ TNFαINFγ DP: % of T cells double positive for TNFα/IFNγ; conditions: pool of overlapping 15-mer peptides, maximum across normal donors; for Maximum Fold Change Over Background CD4+ cells / Maximum Fold Change Over Background CD8+ cells / Maximum Frequency of TNFα/IFNγ Double Positive CD4+ T cells / Maximum Frequency of TNFα/IFNγ Double Positive CD8+ T cells: Table 25; for Maximum Fold Change Over Background CD4+ cells: TNFα+IFNγ+ CD4+ T cells; for Maximum Fold Change Over Background CD4+ cells / Maximum Fold Change Over Background CD8+ cells: over negative control; for Maximum Fold Change Over Background CD8+ cells: TNFα+IFNγ+ CD8+ T cells; for Max. Fold Change over background CD4+ TNFαINFγ double positive DP / Max. Fold Change over background CD8+ TNFαINFγ double positive DP / Max. Frequency of CD4+ TNFαINFγ DP / Max. Frequency of CD8+ TNFαINFγ DP: Table 28, additional neoantigens
Experimental: CD1c+ Dendritic Cells (DC) isolated from human normal PBMCs were thawed using media (IMDM (Gibco) supplemented with glutamine, HEPES, 5% human serum (Sigma), and 1× Pen-Strep). DC cells were resuspended in media supplemented with IL-4 (Peprotech, 80 ng/mL) and GM-CSF (Gibco, 80 ng/mL), plated in 6 well microplates, and rested overnight at 37° C. (5% CO2). The following day, DC cells were counted and plated in a 96 well round bottom microplate at a concentration of 30,000 viable cells per well. Lyophilized peptides (15-mer overlapping peptides) were solubilized in 100% DMSO and pooled by neoantigen to between 5 mg/mL and 20 mg/mL. Neoantigen peptides pools were added to DCs for a final concentration of 2.5 μg/mL to 10 μg/mL and rested for 2 hours at 37° C. (5% CO2). CEF Peptide Pool “Plus” (Cellular Technologies, Ltd.) was utilized as a positive control and DMSO at the same final concentration as the experimental peptides was utilized as a negative control. After 2 hours, DC cells were irradiated with 50 gray of ionizing radiation. Autologous CD3+ Pan-T cells isolated from human normal PBMCs were thawed using media. Following irradiation, autologous Pan-T cells were added to the irradiated DCs at 300,000 viable cells per well. Human IL-15 (Peprotech) was added to all wells at final concentration of 10 ng/mL.
(§1) Plates were incubated at 37° C. (5% CO2) for a total of 12 days. Media was refreshed every 2-3 days with IL-15 (10 ng/mL final concentration) and IL-2 (R&D systems, 10 IU/mL final concentration). On day 11 cells were re-stimulated with identical experimental peptide pools or controls, at same concentration as peptide stimulation on Day 1. Protein Inhibitor Cocktail (eBioscience) was added to every well and plate was incubated overnight at 37° C. (5% CO2).
(§2) On day 12, cells were stained for intracellular flow cytometry analysis. The cells were washed with PBS and stained with Live/Dead Fixable Aqua Dead Cell stain (Thermo-Fisher). Following the live/dead stain, cells were blocked using Biotin-Free Fc Receptor Blocker (Accurate Chemical & Scientific Corp). Extracellular cellular flow panel (1 μL/antibody per well in 50 μL) consisted of CD3 PerCP-Cy5.5 (Biolegend), CD4 BV421 (Biolegend), and CD8 APC-Cy7 (Biolegend). After extracellular staining, cells were fixed using Foxp3/Transcription Factor Staining Buffer Set (eBioscience) and stained for intracellular proteins (1:50 dilution) using TNFα FITC (R&D Systems) and IFNγ BV785 (Biolegend). Cells were washed and resuspended in stain buffer and analyzed using a BD Celesta flow cytometer.
Flow cytometry cell staining analysis was completed using FlowJo v10. Cells were gated on live, singlet, CD3+ cells. The CD8+ and CD4+ T cells were analyzed for TNFα/IFNγ expression and the frequency of double positive TNFα/IFNγ CD8+ and the frequency of double positive TNFα/IFNγ CD4+ T cells were recorded. Responses were assessed to be positive when the frequency of double positive TNFα/IFNγ CD8+ or TNFα/IFNγ CD4+ T cells due to stimulation with an experimental peptide pool was increased greater than or equal to 3-fold over the DMSO only negative control for that donor and at least 0.01%.
(§3) Overlapping 15-mer peptides were designed to span each neoantigen incorporated into NeoGAd20 and NeoMVA to assess their ability to activate T cells using the exogenous autologous normal donor restimulation assay described in Example 1 as pools using TNFα and IFNγ production by CD8^+ and CD4^+ T cells as a readout.
as §3, with “Immunogenicity of various additional identified neoantigens was assessed. Overlapping” for “Overlapping”, “similarly to what was done in Example 11” for “incorporated into NeoGAd20 and NeoMVA”

[2] = tested on: CD8+ T cells in PBMCs from patients with metastatic castrate-resistant prostate cancer; assay: Patient PBMC restimulation assay (in vitro immunogenicity of neoantigens); assay type: cell-based, human; conditions: for Immunogenic: Patient PBMC restimulation, TNFα and IFNγ production by CD8+ T cells; for Maximum fold change over negative control: TNFα+IFNγ+CD8+ T cells, highest fold change across the PBMC donors evaluated, 9 mer peptide; for Maximum frequency of TNFα^+IFNγ^+CD8^+ T cells (Percent): greatest frequency among all tested PBMC donors, negative control 0.011-0.8 depending on patient
Experimental: PBMCs from human patients with metastatic castrate-resistant prostate cancer were thawed using media (RPMI 1640 supplemented with Glutamax, 10% HI FBS, and 1× Sodium Pyruvate). Cells were counted and plated in a 96 well round bottom microplate at a concentration of 250,000 viable cells per well. Lyophilized peptides were solubilized in 100% DMSO and diluted in media to 10 μg/mL. Neoantigen peptides were added in equal volume to PBMCs for a final concentration of 5 μg/mL. CEF Peptide Pool “Plus” (Cellular Technologies, Ltd.) was utilized as a positive control and DMSO at the same final concentration as the experimental peptides was utilized as a negative control. Human IL-15 (Peprotech) was added to all wells at final concentration of 10 ng/mL.
as §1, with “13” for “12”, “2” for “2-3”, “12, PBMCs” for “11 cells”, “peptides” for “peptide pools”, “After 1-hour incubation, protein” for “Protein”, “overnight.” for “overnight at 37° C. (5% CO2).”
as §2, with “13,” for “12,”
Flow cytometry cell staining analysis was completed using FlowJo v10. Cells were gated on live, singlet, CD3+ cells. The CD8+ T cells were analyzed for TNFα/IFNγ expression and the frequency of double positive TNFα/IFNγ CD8+ T cells was recorded. Responses were assessed to be positive when the frequency of double positive TNFα/IFNγ CD8+ T cells due to stimulation with an experimental peptide was increased greater than or equal to 2-fold over the DMSO only negative control for that patient. Peptides were analyzed in 1 to 7 patient samples.
The 9 mer fragments shown in Table 13 were assessed for their ability to activate T cells using the Patient PBMC restimulation assay described in Example 1 using TNFα and IFNγ production by CD8^+ T cells as a readout. Self-antigens shown in Table 15 were also used in the assays. […] PBMCs from ten patients were evaluated.

Row | Substance | Maximum Fold Change Over Background CD4+ cells [1] | Maximum Fold Change Over Background CD8+ cells [1] | Maximum Frequency of TNFα/IFNγ Double Positive CD4+ T cells [1] | Maximum Frequency of TNFα/IFNγ Double Positive CD8+ T cells [1] | Immunogenic [2] | Maximum fold change over negative control [2] | Maximum frequency of TNFα^+IFNγ^+CD8^+ T cells (Percent) [2] [%] | Max. Fold Change over background CD4+ TNFαINFγ double positive DP [1] | Max. Fold Change over background CD8+ TNFαINFγ double positive DP [1] | Max. Frequency of CD4+ TNFαINFγ DP [1] | Max. Frequency of CD8+ TNFαINFγ DP [1]
1 | HYKLIQQPISLFSITDRLHKTFSQLPSVHLCSITFQWGHPPIFCSTNDICVTANFCISVTFLKPCFLLHEASASQ [MS1] | 50.19 | 5.56 | 0.39 | 0.1 |  |  |  |  |  |  | 
2 | P50 (IQYSCMGLM) [Peptide P50] |  |  |  |  | Yes | 5.14 | 0.190 |  |  |  | 
3 | GVPGDSTRRAVRRMNTF [Neoantigen P16] | 2.44 | 2.44 | 0.039 | 0.039 | Yes | 65.82 | 4.620 |  |  |  | 
4 | NSKMALNSLNSIDDAQLTRIAPPRSHCCFWEVNAP [Neoantigen P35] | 3.47 | 14.44 | 0.03 | 0.26 | Yes | 2.67 | 0.064 |  |  |  | 
5 | YAYKDFLWCFPFSLVFLQEIQICCHVSCLCCICCSTRICLGCLLELFLSRALRALHVLWNGFQLHCQ [MS6] | 111.97 | 4.17 | 0.87 | 0.08 |  |  |  |  |  |  | 
6 | P27 (FPVGAEGTF) [Peptide P27] |  |  |  |  | Yes | 3.43 | 0.430 |  |  |  | 
7 | P37 (GVLRRLLCR) [Neoantigen P37] |  |  |  |  |  |  |  | 22.78 | 2.05 | 0.09 | 0.13
8 | TMPAILKLQKNCLLSL [MS8] | 15.60 | 4.44 | 0.40 | 0.14 |  |  |  |  |  |  | 
9 | P27 (FPVGAEGTF) [Neoantigen P27] |  |  |  |  |  |  |  | 45.38 | 7.87 | 0.05 | 0.59
10 | P59 (NMVENGCYL) [Peptide P59] |  |  |  |  | Yes | 10.75 | 3.010 |  |  |  | 
11 | P97 (LMAQRLLLR) [Neoantigen P97] |  |  |  |  |  |  |  | 3.14 | 7.47 | 0.12 | 1.11
12 | P37 (GVLRRLLCR) [Peptide P37] |  |  |  |  | Yes |  | 1.160 |  |  |  | 
13 | P19 (IPVLTRWPL) [Neoantigen P19] |  |  |  |  |  |  |  | 6.67 | 4.76 | 0.16 | 0.15
